Test results reported in US7202049B2, “Mitogen-activated protein kinase p38-2 and methods of use therefor” (Signal Pharmaceuticals, Inc., priority 1996, dated 2007).

Test system: p38-2
Test: Immune complex kinase assay of HA-tagged p38-2 from transiently transfected COS cells, GST-ATF2 substrate
Assay type: cell-based, human
From the text: An expression vector encoding epitope-tagged p38-2 (3×HA-p38-2-SRα3) was constructed by adding sequence encoding three copies of a 10 amino acid hemagglutinin (HA) epitope to the N-terminus of p38-2 and ligating the resulting cDNA into the expression vector SRα3. To investigate the pattern of regulation of p38-2, COS cells were transiently transfected with HA-p38-2-SRα3 (as described above) by the DEAE-Dextran method (Kawai and Nishizawa, Mol. Cell. Biol. 4:1172–1174, 1984).
Following treatment, cell lysates were prepared by solubilization in lysis buffer as described (Derijard et al., Cell 76:1025–1037, 1994), and protein concentration of lysates was determined by Bradford assay (Bradford, Ann Biochem. 72:248–254, 1976). Cell lysates were used in an immune complex kinase assay with GST-ATF2 substrate, prepared as previously described (Gupta et al., Science 267:389–39, 1995). The assay was generally performed as described previously (Derijard et al., Cell 76:1025–1037, 1994; Lin et al., Science 268:286–290, 1995) with minor modifications. The concentration of [γ-^32P]ATP was 50 nM, and 30 μg cell lysate was immunoprecipitated for 2 hours with the anti-HA antibody 12CA5 (Boehringer-Mannheim Corp., Indianapolis, Ind.) and then incubated with 1 μg of recombinant substrate.

Row | Structure (SMILES) | increase in p38-2 activity (ATF2 phosphorylation) | induction of p38-2 (kinase activity, ATF2 phosphorylation) (COS cells transfected with HA-p38-2, anisomycin 50 ng/mL for 45 minutes)
1 | [Cl-].[Na+] [NaCl] | No increase | 
2 | COc1ccc(C[C@H]2NC[C@H](O)[C@H]2OC(C)=O)cc1 [anisomycin] |  | strong induction
